Test results: patent US6914045B2, “Glycopeptide antibiotics” (Wyeth Holdings Corporation, priority 2001, dated 2005)

What was measured:
Enterococcus sp. = experiment: in vitro antibacterial evaluation, MIC by broth dilution; assay type: cell-based; settings: broth dilution, 18 hours at 35° C.
How it was run: (§1)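 Test organisms, which included recent clinical isolates resistant to methicillin, penicillin and/or vancomycin, were inoculated at 5×10^5 CFU/mL into Muller-Hinton II […] containing antibiotic at 64-0.06 μg/mL. Minimum inhibitory concentrations were then read as the lowest level inhibiting growth.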

Escherichia coli = experiment: as above; assay type: cell-based; settings: 18 hours at 35° C.
How it was run: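 MIC = lowest antibiotic concentration preventing visible growth; inoculum 5×10^5 CFU/mL; drug range 64-0.06 μg/mL; Muller-Hinton II […]; NCCLS M7-A2 guidance.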

Staphylococcus sp. = experiment: as above; assay type: cell-based; settings: broth dilution, 18 hours at 35° C.
How it was run: as §1

Streptococcus sp. = experiment: as above; assay type: cell-based; settings: broth dilution, 18 hours at 35° C.
How it was run: as §1

[1] = tested on: Staphylococcus aureus-SMITH (GC 4543); experiment: acute lethal infection in mice; assay type: in vivo; settings: acute lethal infection, female CD-1 mice, intraperitoneal challenge, intravenous 30 min. after infection, 7 day survival
How it was run: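 Female CD-1 mice (20+/−2 gm) were infected intraperitoneally with enough bacteria, suspended in trypticase soy broth or hog gastric mucin, to kill untreated controls within 24-48 hr. Compound in saline or 5% dextrose was given intravenously 30 min post-infection, five mice per dose. ED50 came from pooled 7 day survival of 3 tests.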

CC(C)CC(=O)OC1C(O)C(CO)OC(OC2C(CO)OC(Oc3ccc(CC4NC(=O)C(C(C)c5ccc(Cl)cc5)NC(=O)CNC(=O)C(CO)NC(=O)C(C(O)C5CNC(=N)N5C5OC(CO)C(O)C(O)C5O)NC(=O)C(C(O)C5CNC(=N)N5)NC4=O)cc3)C(O)C2O)C1O (stereo not drawn) [Example 262b, Cyclo[glycyl-4-chloro-β-methylphenylalanyl-O-[4-O-[3-O-(3-methylbutanoyl)hexopyranosyl]-hexopyranosyl]tyrosyl-3-(2-iminoimidazolidin-4-yl)seryl-3-(3-hexopyranosyl-2-iminoimidazolidin-4-yl)serylseryl]]
4 µg/mL: MIC Staphylococcus aureus (ATCC 29213) (Staphylococcus sp.) | MIC Staphylococcus aureus (GC 1131) (Staphylococcus sp.) | MIC Staphylococcus aureus (GC 4544) (Staphylococcus sp.) | MIC Staphylococcus aureus (ATCC 29213) (Staphylococcus sp.; strain ATCC 29213) | MIC Staphylococcus aureus (GC 1131) (Staphylococcus sp.; strain GC 1131) | MIC Staphylococcus aureus (GC 4544) (Staphylococcus sp.; strain GC 4544)
1.22 mg/kg: median effective dose (ED50), Staphylococcus aureus-SMITH (GC 4543) [1]
1 µg/mL: MIC Escherichia coli (GC 4560) (Escherichia coli; Escherichia coli (GC 4560)) | MIC Coagulase Negative Staphylococcus (GC 4548) (Staphylococcus sp.) | MIC Coagulase Negative Staphylococcus (GC 4549) (Staphylococcus sp.) | MIC Staphylococcus aureus-SMITH (GC 4543) (Staphylococcus sp.) | MIC Coagulase Negative Staphylococcus (GC 4548) (Staphylococcus sp.; strain GC 4548) | MIC Coagulase Negative Staphylococcus (GC 4549) (Staphylococcus sp.; strain GC 4549) | MIC Staphylococcus aureus-SMITH (GC 4543) (Staphylococcus sp.; strain SMITH GC 4543) | MIC Streptococcus agalactiae (GC 4564) (Streptococcus sp.; strain GC 4564) | MIC Streptococcus pyogenes (ID-3187) (Streptococcus sp.; strain ID-3187)
>64 µg/mL: MIC Escherichia coli (ATCC 25922) (Escherichia coli; Escherichia coli (ATCC 25922)) | MIC Escherichia coli (GC 4559) (Escherichia coli; Escherichia coli (GC 4559))
2 µg/mL: MIC Enterococcus faecium (GC 4557) (Enterococcus sp.; Enterococcus faecium (GC 4557)) | MIC Enterococcus faecium (GC 4557) (Enterococcus sp.; strain GC 4557) | MIC Coagulase Negative Staphylococcus (GC 4547) (Staphylococcus sp.) | MIC Coagulase Negative Staphylococcus (GC 4551) (Staphylococcus sp.) | MIC Staphylococcus aureus (GC 4541) (Staphylococcus sp.) | MIC Staphylococcus aureus (GC 4542) (Staphylococcus sp.) | MIC Staphylococcus aureus (GC 4545) (Staphylococcus sp.) | MIC Staphylococcus haemolyticus (GC 4546) (Staphylococcus sp.) | MIC Staphylococcus aureus (GC 4541) (Staphylococcus sp.; strain GC 4541) | MIC Staphylococcus aureus (GC 4542) (Staphylococcus sp.; strain GC 4542) | MIC Staphylococcus aureus (GC 4545) (Staphylococcus sp.; strain GC 4545) | MIC Staphylococcus haemolyticus (GC 4546) (Staphylococcus sp.; strain GC 4546) | MIC Coagulase Negative Staphylococcus (GC 4547) (Staphylococcus sp.; strain GC 4547) | MIC Coagulase Negative Staphylococcus (GC 4551) (Staphylococcus sp.; strain GC 4551)
16 µg/mL: MIC Enterococcus avium (GC 4558) (Enterococcus sp.; Enterococcus avium (GC 4558)) | MIC Enterococcus faecium (GC 2243) (Enterococcus sp.; Enterococcus faecium (GC 2243)) | MIC Enterococcus faecium (GC 4556) (Enterococcus sp.; Enterococcus faecium (GC 4556)) | MIC Enterococcus faecalis (GC 2242) (Enterococcus sp.; strain GC 2242) | MIC Enterococcus faecium (GC 2243) (Enterococcus sp.; strain GC 2243) | MIC Enterococcus faecium (GC 4556) (Enterococcus sp.; strain GC 4556) | MIC Enterococcus avium (GC 4558) (Enterococcus sp.; strain GC 4558)
32 µg/mL: MIC Enterococcus faecalis (ATCC 29212) (Enterococcus sp.; Enterococcus faecalis (ATCC 29212)) | MIC Enterococcus faecalis (GC 4553) (Enterococcus sp.; Enterococcus faecalis (GC 4553)) | MIC Enterococcus faecalis (GC 4554) (Enterococcus sp.; Enterococcus faecalis (GC 4554)) | MIC Enterococcus faecalis (ATCC 29212) (Enterococcus sp.; strain ATCC 29212) | MIC Enterococcus faecalis (GC 4552) (Enterococcus sp.; strain GC 4552) | MIC Enterococcus faecalis (GC 4553) (Enterococcus sp.; strain GC 4553) | MIC Enterococcus faecalis (GC 4554) (Enterococcus sp.; strain GC 4554)
